Experimental data from ChEMBL document CHEMBL5241069, “A key review on oxadiazole analogs as potential methicillin-resistant Staphylococcus aureus (MRSA) activity: Structure-activity relationship studies” (Eur J Med Chem, 2021).
Converted amounts (≈) assume the structure as drawn.

Key:
Staphylococcus aureus [1] = test: Antimicrobial activity against methicillin resistant Staphylococcus aureus 2658 RCMB assessed as inhibition of bacterial growth incubated for 20 hrs by CLSI protocol based broth microdilution method; type: functional
Staphylococcus aureus [2] = test: Antibacterial activity against methicillin resistant Staphylococcus aureus MW2 assessed as inhibition of bacterial growth incubated for 16 to 20 hrs by CLSI protocol based Mueller-Hinton broth method; type: functional; details: time 16-20 hrs
Staphylococcus aureus [3] = test: Antibacterial activity against methicillin resistant Staphylococcus aureus USA300 assessed as inhibition of bacterial growth incubated for 16 to 20 hrs by CLSI protocol based Mueller-Hinton broth method; type: functional; details: time 16-20 hrs
Staphylococcus aureus [4] = test: Antibacterial activity against methicillin resistant Staphylococcus aureus ATCC 33592 incubated for 24 hrs by Mueller-Hinton broth based assay; type: functional
[5] = Cytotoxicity against human HepG2 cells assessed as inhibition of cell growth incubated for 24 hrs by WST-1 assay; type: toxicity, cell-based; details: read-out: LD50
Staphylococcus aureus [6] = test: Antimicrobial activity against methicillin resistant Staphylococcus aureus A252 assessed as inhibition of bacterial growth incubated for 16 to 20 hrs by CLSI protocol based method; type: functional; details: time 16-20 hrs
Staphylococcus aureus [7] = test: Antimicrobial activity against Staphylococcus aureus Newman assessed as inhibition of bacterial growth incubated for 16 to 20 hrs by CLSI protocol based method; type: functional; details: time 16-20 hrs
Staphylococcus aureus [8] = test: Antimicrobial activity against methicillin resistant Staphylococcus aureus USA300 assessed as inhibition of bacterial growth incubated for 16 to 20 hrs by CLSI protocol based method; type: functional; details: time 16-20 hrs
Staphylococcus aureus [9] = test: Antibacterial activity against methicillin resistant Staphylococcus aureus ATCC 43300 assessed as inhibition of bacterial growth incubated for 24 to 48 hrs by spectrophotometric analysis; type: functional; details: time 24-48 hrs
Staphylococcus aureus [10] = test: Antibacterial activity against methicillin resistant Staphylococcus aureus MTCC 84 incubated for 24 hrs by serial dilution method; type: functional
Staphylococcus aureus [11] = test: Antibacterial activity against methicillin resistant Staphylococcus aureus assessed as inhibition zone by disc diffusion method; type: functional
Staphylococcus aureus [12] = test: Antibacterial activity against methicillin resistant Staphylococcus aureus assessed as inhibition of bacterial growth; type: functional, organism-based
Staphylococcus aureus [13] = test: Antimicrobial activity against methicillin resistant Staphylococcus aureus 1 assessed as inhibition of bacterial growth incubated for 16 to 20 hrs by CLSI protocol based Muller-Hinton broth method; type: functional; details: time 16-20 hrs
Staphylococcus aureus [14] = test: Antimicrobial activity against methicillin resistant Staphylococcus aureus 2 assessed as inhibition of bacterial growth incubated for 16 to 20 hrs by CLSI protocol based Muller-Hinton broth method; type: functional; details: time 16-20 hrs
Staphylococcus aureus [15] = test: Antimicrobial activity against methicillin resistant Staphylococcus aureus 3 assessed as inhibition of bacterial growth incubated for 16 to 20 hrs by CLSI protocol based Muller-Hinton broth method; type: functional; details: time 16-20 hrs
Staphylococcus aureus [16] = test: Antimicrobial activity against methicillin resistant Staphylococcus aureus ATCC 25923 assessed as inhibition of bacterial growth by agar diffusion cup plate method; type: functional
Staphylococcus aureus [17] = test: Antibiofilm activity against methicillin resistant Staphylococcus aureus ATCC 43866 assessed as inhibition of biofilm formation incubated for 18 to 24 hrs by tissue culture plate method; type: functional; details: time 18-24 hrs
Staphylococcus aureus [18] = test: Antibacterial activity against methicillin resistant Staphylococcus aureus 42 assessed as inhibition of bacterial growth; type: functional
Staphylococcus aureus [19] = test: Antibacterial activity against methicillin resistant Staphylococcus aureus 747 assessed as inhibition of bacterial growth; type: functional
Staphylococcus aureus [20] = test: Antibacterial activity against methicillin resistant Staphylococcus aureus 128 assessed as inhibition of bacterial growth; type: functional
Staphylococcus aureus [21] = test: Antibacterial activity against methicillin resistant Staphylococcus aureus 181 assessed as inhibition of bacterial growth; type: functional
Staphylococcus aureus [22] = test: Antibacterial activity methicillin resistant Staphylococcus aureus NRS 484 (USA 1100) assessed as inhibition of bacterial growth by broth microdilution method; type: functional
Staphylococcus aureus [23] = test: Antibacterial activity methicillin resistant Staphylococcus aureus NRS123 (USA 400) assessed as inhibition of bacterial growth by broth microdilution method; type: functional
Staphylococcus aureus [24] = test: Antibacterial activity methicillin resistant Staphylococcus aureus NRS 382 (USA 100) assessed as inhibition of bacterial growth by broth microdilution method; type: functional
Staphylococcus aureus [25] = test: Antibacterial activity methicillin resistant Staphylococcus aureus NRS 386 (USA 700) assessed as inhibition of bacterial growth by broth microdilution method; type: functional
Staphylococcus aureus [26] = test: Antibacterial activity methicillin resistant Staphylococcus aureus NRS 385 (USA 500) assessed as inhibition of bacterial growth by broth microdilution method; type: functional
Staphylococcus aureus [27] = test: Antibacterial activity methicillin resistant Staphylococcus aureus NRS 383 (USA 200) assessed as inhibition of bacterial growth by broth microdilution method; type: functional
Staphylococcus aureus [28] = test: Antibacterial activity methicillin resistant Staphylococcus aureus NRS 387 (USA 800) assessed as inhibition of bacterial growth by broth microdilution method; type: functional
Staphylococcus aureus [29] = test: Antibacterial activity methicillin resistant Staphylococcus aureus NRS 119 assessed as inhibition of bacterial growth by broth microdilution method; type: functional; details: NRS119
Staphylococcus aureus [30] = test: Antibacterial activity methicillin resistant Staphylococcus aureus NRS384 (USA 300) assessed as inhibition of bacterial growth by broth microdilution method; type: functional
Staphylococcus aureus [31] = test: Antibacterial activity methicillin resistant Staphylococcus aureus NRS 194 assessed as inhibition of bacterial growth by broth microdilution method; type: functional
Staphylococcus aureus [32] = test: Antibacterial activity methicillin resistant Staphylococcus aureus NRS 483 (USA 1000) assessed as inhibition of bacterial growth by broth microdilution method; type: functional
Staphylococcus aureus [33] = test: Antibacterial activity methicillin resistant Staphylococcus aureus 2658 RCMB assessed as inhibition of bacterial growth by broth microdilution method; type: functional
Staphylococcus aureus [34] = test: Antibiofilm activity against methicillin resistant Staphylococcus aureus assessed as reduction in biofilm formation at 2 times of MIC by microtiter plate biofilm formation assay; type: functional; design: scale not given: the % may be the effect or the level left
Staphylococcus aureus [35] = test: Antibacterial activity methicillin resistant Staphylococcus aureus NRS 108 assessed as inhibition of bacterial growth by broth microdilution method; type: functional
[36] = Half-life in rat at 25 mg/kg, po; type: ADME, organism-based; details: in vivo
Staphylococcus aureus [37] = test: Antimicrobial activity against methicillin resistant Staphylococcus aureus ATCC 43300 assessed as inhibition of bacterial growth incubated for 18 to 24 hrs by broth microdilution method; type: functional; details: time 18-24 hrs

Molecule: Cc1nc(-c2ccc3ccccc3c2)sc1-c1nnc(NN)o1
- MIC (Staphylococcus aureus [1]): 3.9 µg/mL (≈ 12.1 µM)

Molecule: CCCCC(=O)Nc1nnc(-c2ccc(Cl)cc2)o1
- MBC (Staphylococcus aureus [2]): 64 µg/mL (≈ 229 µM)
- MBC (Staphylococcus aureus [3]): 8 µg/mL (≈ 28.6 µM)

Molecule: Cc1cc(C(=O)Nc2nnc(-c3ccc(C(F)(F)F)cc3)o2)ccc1S(=O)(=O)N1C[C@H](C)C[C@H](C)C1
- MIC (Staphylococcus aureus [4]): 11 µg/mL (≈ 21.1 µM)

Molecule: C[C@@H]1C[C@H](C)CN(S(=O)(=O)c2ccc(C(=O)Nc3nnc(-c4ccc(C(F)(F)F)cc4)o3)cc2)C1
- MIC (Staphylococcus aureus [4]): 0.25 µg/mL (≈ 0.492 µM)

Molecule: O=C(Nc1nnc(-c2ccc3c(c2)CCCC3)o1)C1CC1
- MBC (Staphylococcus aureus [2]): 16 µg/mL (≈ 56.5 µM)
- CC50 at 24 h [5]: > 32 µg/mL
- MBC (Staphylococcus aureus [3]): 16 µg/mL (≈ 56.5 µM)

Molecule: O=C(Nc1nnc(-c2ccc(F)cc2)o1)c1ccc(Cl)cc1
- MIC (Staphylococcus aureus [6]): 1.28 µg/mL (≈ 4.03 µM)
- MIC (Staphylococcus aureus [7]): 1.28 µg/mL (≈ 4.03 µM)
- MIC (Staphylococcus aureus [8]): 0.64 µg/mL (≈ 2.01 µM)

Molecule: O=C(/C=C/c1cccc(F)c1)N1N=C(c2ccncc2)OC1c1cn(-c2ccccc2)nc1-c1ccc(F)cc1 (stereo not drawn)
- MIC (Staphylococcus aureus [9]): 25 µg/mL (≈ 46.9 µM)

Molecule: O=C(O)c1cn(C2CC2)c2cc(N3CCNCC3)c(F)cc2c1=O [CIPROFLOXACIN]
- MIC (Staphylococcus aureus [10]): > 100 µg/mL
- inhibition zone (IZ) (Staphylococcus aureus [11]): 22 mm

Molecule: 2-((phenylbismuthino)thio)-5-(2-(p-tolyl)thiazol-4-yl)-1,3,4-oxadiazole
- MIC (Staphylococcus aureus [12]): 1.1 µM

Molecule: Cc1nc(-c2ccc3ccccc3c2)sc1-c1nnc(NC(=N)N)o1
- MIC (Staphylococcus aureus [1]): 1.95 µg/mL (≈ 5.56 µM)

Molecule: CCn1cc(C(=O)O)c(=O)c2cc(F)c(N3CCN(Cc4nnc(-c5cccc(C)c5)o4)CC3)cc21
- MIC (Staphylococcus aureus [13]): 1 µg/mL (≈ 2.03 µM)
- MIC (Staphylococcus aureus [14]): 1 µg/mL (≈ 2.03 µM)
- MIC (Staphylococcus aureus [15]): 2 µg/mL (≈ 4.07 µM)

Molecule: Cc1nnc(-c2ccc(O)cc2)o1
- MIC (Staphylococcus aureus [16]): 25 µg/mL (≈ 142 µM)

Molecule: CCn1cc(C(=O)O)c(=O)c2cc(F)c(N3CCN(Cc4nnc(-c5ccc(F)cc5Cl)o4)CC3)cc21
- MIC (Staphylococcus aureus [13]): 1 µg/mL (≈ 1.89 µM)
- MIC (Staphylococcus aureus [14]): 1 µg/mL (≈ 1.89 µM)
- MIC (Staphylococcus aureus [15]): 1 µg/mL (≈ 1.89 µM)

Molecule: CN[C@H](CC(C)C)C(=O)N[C@H]1C(=O)N[C@@H](CC(N)=O)C(=O)N[C@H]2C(=O)N[C@H]3C(=O)N[C@H](C(=O)N[C@H](C(=O)O)c4cc(O)cc(O)c4-c4cc3ccc4O)[C@H](O)c3ccc(c(Cl)c3)Oc3cc2cc(c3O[C@@H]2O[C@H](CO)[C@@H](O)[C@H](O)[C@H]2O[C@H]2C[C@](C)(N)[C@H](O)[C@H](C)O2)Oc2ccc(cc2Cl)[C@H]1O [VANCOMYCIN]
- MIC (Staphylococcus aureus [17]): 6.25 µg/mL (≈ 4.31 µM)
- MIC (Staphylococcus aureus [1]): 1.95 µg/mL (≈ 1.35 µM)
- MIC (Staphylococcus aureus [18]): 13.1 µg/mL (≈ 9.04 µM)
- MIC (Staphylococcus aureus [19]): 21.6 µg/mL (≈ 14.9 µM)
- MIC (Staphylococcus aureus [20]): 20.7 µg/mL (≈ 14.3 µM)
- MIC (Staphylococcus aureus [21]): 20.3 µg/mL (≈ 14 µM)

Molecule: Cc1nc(-c2ccc3ccccc3c2)sc1-c1nnc(N2CC(O)C2)o1
- MIC (Staphylococcus aureus [1]): 3.9 µg/mL (≈ 10.7 µM)

Molecule: Cc1nc(-c2ccc(C(C)(C)C)cc2)sc1-c1nnc(N2CC(O)C2)o1
- MIC (Staphylococcus aureus [22]): 4 µg/mL (≈ 10.8 µM)
- MIC (Staphylococcus aureus [23]): 4 µg/mL (≈ 10.8 µM)
- MIC (Staphylococcus aureus [24]): 4 µg/mL (≈ 10.8 µM)
- MIC (Staphylococcus aureus [25]): 4 µg/mL (≈ 10.8 µM)
- MIC (Staphylococcus aureus [26]): 4 µg/mL (≈ 10.8 µM)
- MIC (Staphylococcus aureus [27]): 4 µg/mL (≈ 10.8 µM)
- MIC (Staphylococcus aureus [28]): 4 µg/mL (≈ 10.8 µM)
- MIC (Staphylococcus aureus [29]): 4 µg/mL (≈ 10.8 µM)
- MIC (Staphylococcus aureus [30]): 4 µg/mL (≈ 10.8 µM)
- MIC (Staphylococcus aureus [31]): 4 µg/mL (≈ 10.8 µM)
- MIC (Staphylococcus aureus [32]): 4 µg/mL (≈ 10.8 µM)
- MIC (Staphylococcus aureus [33]): 3.12 µg/mL (≈ 8.42 µM)
- Activity (Staphylococcus aureus [34]): 41%
- MIC (Staphylococcus aureus [35]): 4 µg/mL (≈ 10.8 µM)
- half-life [36]: 5.5 h

Molecule: Cc1ccc(OCc2nnco2)c(C(=O)c2cccc(Cl)c2)c1
- MIC (Staphylococcus aureus [10]): 62.5 µg/mL (≈ 190 µM)

Molecule: O=C(N[C@H](CO)[C@H](O)c1ccc([N+](=O)[O-])cc1)C(Cl)Cl [CHLORAMPHENICOL]
- MIC (Staphylococcus aureus [9]): 50 µg/mL (≈ 155 µM)

Molecule: C=C(C)C(=O)OCC[N+](C)(C)Cc1nnc(CCCCc2nnc(C[N+](C)(C)CCOC(=O)C(=C)C)o2)o1.[Cl-].[Cl-]
- MIC (Staphylococcus aureus [37]): 0.98 µg/mL
